Test results published in patent US20240277698A1, “METHODS OF USING ALDOSTERONE SYNTHASE INHIBITORS” (CINCOR PHARMA, INC., priority 2021, published 2024).
Entries after “also recorded” stand apart in the source; their conditions may differ.

Experiments:
[1] = target: T1, CYP11B1 (Homo sapiens, UniProt P15538); test: MAD study: plasma cortisol (free and total) and 11-deoxycortisol, with and without Cortrosyn challenge; type: in vivo; conditions: for cortisol (total or free) or 11-deoxycortisol: doses ≤5 mg, including Cortrosyn challenge
T1 construct: endogenous in cells; host or cells: adrenal cortex of healthy human subjects (in vivo, oral dosing)
T1 sequence (P15538 25-503): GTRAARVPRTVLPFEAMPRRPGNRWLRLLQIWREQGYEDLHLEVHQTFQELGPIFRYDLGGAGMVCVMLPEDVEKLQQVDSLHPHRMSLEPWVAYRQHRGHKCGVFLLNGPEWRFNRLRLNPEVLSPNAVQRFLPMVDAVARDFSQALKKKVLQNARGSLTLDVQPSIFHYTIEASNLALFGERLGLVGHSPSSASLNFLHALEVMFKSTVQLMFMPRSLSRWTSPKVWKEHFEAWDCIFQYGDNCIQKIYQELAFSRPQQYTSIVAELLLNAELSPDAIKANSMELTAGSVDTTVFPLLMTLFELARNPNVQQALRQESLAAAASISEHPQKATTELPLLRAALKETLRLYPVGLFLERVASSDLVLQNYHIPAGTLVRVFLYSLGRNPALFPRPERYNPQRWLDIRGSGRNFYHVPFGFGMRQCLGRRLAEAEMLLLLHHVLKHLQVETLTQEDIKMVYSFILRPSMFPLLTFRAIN
Source text: For each subject, the study consisted of: • A screening period of up to 28 days; • A 5-day inpatient run-in period during which subjects adhered to a controlled, standardized diet and underwent baseline PD assessments; • A 15-day inpatient treatment period, during which subjects received (R)-compound 1 or placebo once daily for 10 days while adhering to a controlled, standardized diet, followed by PK and PD sampling over an additional 5 days; and • A follow-up visit 3 days (1 day) after discharge from the clinical unit. • A cortisol stimulation test (Cohorts 1 and 2 only) and standing aldosterone assessment (all cohorts) were performed on Days 1 and 10. Serial blood samples for PK and PD were obtained prior to and at specified time points over 24 hours after dosing on Day 1 as well as prior to and at specified time points over 120 hours after dosing on Day 10. In addition, blood samples for PK were collected prior to dosing on Days 8 and 9. Urine for PK and PD measurements was collected over 24 hours starting just prior to dosing on Day 1 as well as over 120 hours starting just prior to dosing on Day 10.
These findings are consistent in the presence of Cortrosyn challenge (which occurred with the low salt treatment groups) and in the absence of the challenge (normal salt groups) (Table 13).

[2] = Renal impairment study, single 10 mg dose: safety; type: in vivo
Source text: One subject with end stage disease experienced an unrelated SAE of metabolic encephalopathy and a moderate unrelated adverse event (AE) of tremor. One control subject experienced a mild AE of diarrhea, which was considered to be related to study drug by the Investigator. […] It is not necessary to dose adjust (R)-compound 1 for patients with renal impairment.
Overall, there were no deaths, 1 (3.0%) subject experienced an SAE, and no subjects discontinued due to a TEAE. Overall, 2 (6.1%) subjects experienced a total of 3 TEAEs: 1 (10.0%) subject in the control group experienced a TEAE of mild diarrhea following administration of (R)-compound 1 that was considered related to the study drug; no subjects experienced a TEAE in the (R)-moderate to severe renal impairment group; and 1 (8.3%) subject in the kidney failure group experienced 2 TEAEs of moderate tremor and severe metabolic encephalopathy (recorded as an SAE) following administration of (R)-compound 1 that were considered not related to the study drug. The SAE was thought to be secondary to the concomitant medications. As such, there was no apparent increase in incidence or severity of AEs with decreased renal function. There were no AEs, trends, or clinically meaningful changes in laboratory parameters. There were no AEs or clinically significant changes observed in vital signs, physical examinations, or 12-lead ECGs.

[3] = Day 1, 0.5 mg, normal salt diet
[4] = Day 1, 1.5 mg, normal salt diet
[5] = Day 1, 2.5 mg, low salt diet (Cortrosyn challenge)
[6] = Day 1, 2.5 mg, normal salt diet
[7] = Day 1, 5.0 mg, low salt diet (Cortrosyn challenge)
[8] = Day 10, 0.5 mg, normal salt diet
[9] = Day 10, 1.5 mg, normal salt diet
[10] = Day 10, 2.5 mg, low salt diet (Cortrosyn challenge)
[11] = Day 10, 2.5 mg, normal salt diet
[12] = Day 10, 5.0 mg, low salt diet (Cortrosyn challenge)

In the case of `CCC(=O)N[C@@H]1CCCc2c(-c3ccc4c(c3)CCC(=O)N4C)cncc21` [(R)-Compound 1, (R)—N-(4-(1-methyl-2-oxo-1,2,3,4-tetrahydroquinolin-6-yl)-5,6,7,8-tetrahydroisoquinolin-8-yl)propionamide], the “Plasma total cortisol, percent change from Day −1 to Day 10, predose, mean” value (“Plasma total cortisol, percent change” for short) ([1]; 0.5 mg, normal salt diet) is reported as −2.83%, the “Plasma total cortisol, percent change” value ([1]; 1.5 mg, normal salt diet) is reported as 19.44% and the “Plasma total cortisol, percent change” value ([1]; 2.5 mg, low salt diet) is reported as 5.29%. For the same compound, the “Plasma total cortisol, percent change” value ([1]; 2.5 mg, normal salt diet) was −0.09%, the “Plasma total cortisol, percent change” value ([1]; 5.0 mg, low salt diet) was 58.40% and the “Plasma total cortisol, mean” value ([1]; Day 1, 12 hours postdose, 0.5 mg, normal salt diet) was 28.14 ng/mL. For the same compound, the “Plasma total cortisol, mean” value ([1]; Day 1, 12 hours postdose, 1.5 mg, normal salt diet) was 25.32 ng/mL, the “Plasma total cortisol, mean” value ([1]; Day 1, 12 hours postdose, 2.5 mg, low salt diet) was 21.90 ng/mL and the “Plasma total cortisol, mean” value ([1]; Day 1, 12 hours postdose, 2.5 mg, normal salt diet) was 30.10 ng/mL. The “Plasma total cortisol, mean” value ([1]; Day 1, 12 hours postdose, 5.0 mg, low salt diet) was 19.43 ng/mL, the “Plasma total cortisol, mean” value ([1]; Day 1, predose, 0.5 mg, normal salt diet) was 84.15 ng/mL and the “Plasma total cortisol, mean” value ([1]; Day 1, predose, 1.5 mg, normal salt diet) was 97.61 ng/mL. The “Plasma total cortisol, mean” value ([1]; Day 1, predose, 2.5 mg, low salt diet) was 71.75 ng/mL, the “Plasma total cortisol, mean” value ([1]; Day 1, predose, 2.5 mg, normal salt diet) was 106.85 ng/mL and the “Plasma total cortisol, mean” value ([1]; Day 1, predose, 5.0 mg, low salt diet) was 68.24 ng/mL. The “Plasma 11-deoxycortisol AUC0-12 estimated percent change from baseline, LS Mean” value [1, 3] was −0.57%, the “Plasma cortisol AUC0-12 estimated percent change from baseline, LS Mean” value [1, 3] was −4.43% and the “Plasma 11-deoxycortisol AUC0-12 estimated percent change from baseline, LS Mean” value [1, 4] was 2.39%. The “Plasma cortisol AUC0-12 estimated percent change from baseline, LS Mean” value [1, 4] was 0.62%, the “Plasma 11-deoxycortisol AUC0-12 estimated percent change from baseline, LS Mean” value [1, 5] was 21.63% and the “Plasma cortisol AUC0-12 estimated percent change from baseline, LS Mean” value [1, 5] was −3.91%. For the same compound, the “Plasma 11-deoxycortisol AUC0-12 estimated percent change from baseline, LS Mean” value [1, 6] was 12.73%, the “Plasma cortisol AUC0-12 estimated percent change from baseline, LS Mean” value [1, 6] was −0.52% and the “Plasma 11-deoxycortisol AUC0-12 estimated percent change from baseline, LS Mean” value [1, 7] was 36.67%. The “Plasma cortisol AUC0-12 estimated percent change from baseline, LS Mean” value [1, 7] was 4.04%, the “Plasma total cortisol, mean” value ([1]; Day 2, predose, 0.5 mg, normal salt diet) was 88.33 ng/mL and the “Plasma total cortisol, mean” value ([1]; Day 2, predose, 1.5 mg, normal salt diet) was 95.12 ng/mL. For the same compound, the “Plasma total cortisol, mean” value ([1]; Day 2, predose, 2.5 mg, normal salt diet) was 109.23 ng/mL, the “Plasma total cortisol, mean” value ([1]; Day 10, 12 hours postdose, 0.5 mg, normal salt diet) was 22.36 ng/mL and the “Plasma total cortisol, mean” value ([1]; Day 10, 12 hours postdose, 1.5 mg, normal salt diet) was 41.31 ng/mL. The “Plasma total cortisol, mean” value ([1]; Day 10, 12 hours postdose, 2.5 mg, low salt diet) was 22.93 ng/mL, the “Plasma total cortisol, mean” value ([1]; Day 10, 12 hours postdose, 2.5 mg, normal salt diet) was 31.86 ng/mL and the “Plasma total cortisol, mean” value ([1]; Day 10, 12 hours postdose, 5.0 mg, low salt diet) was 31.90 ng/mL. For the same compound, the “Plasma total cortisol, mean” value ([1]; Day 10, 24 hours postdose, 0.5 mg, normal salt diet) was 95.76 ng/mL, the “Plasma total cortisol, mean” value ([1]; Day 10, 24 hours postdose, 1.5 mg, normal salt diet) was 90.27 ng/mL and the “Plasma total cortisol, mean” value ([1]; Day 10, 24 hours postdose, 2.5 mg, low salt diet) was 94.36 ng/mL. The “Plasma total cortisol, mean” value ([1]; Day 10, 24 hours postdose, 2.5 mg, normal salt diet) was 126.20 ng/mL, the “Plasma total cortisol, mean” value ([1]; Day 10, 24 hours postdose, 5.0 mg, low salt diet) was 121.40 ng/mL and the “Plasma total cortisol, mean” value ([1]; Day 10, predose, 0.5 mg, normal salt diet) was 81.90 ng/mL. The “Plasma total cortisol, mean” value ([1]; Day 10, predose, 1.5 mg, normal salt diet) was 96.54 ng/mL, the “Plasma total cortisol, mean” value ([1]; Day 10, predose, 2.5 mg, low salt diet) was 91.85 ng/mL and the “Plasma total cortisol, mean” value ([1]; Day 10, predose, 2.5 mg, normal salt diet) was 106.52 ng/mL. For the same compound, the “Plasma total cortisol, mean” value ([1]; Day 10, predose, 5.0 mg, low salt diet) was 112.67 ng/mL, the “Plasma 11-deoxycortisol AUC0-12 estimated percent change from baseline, LS Mean” value [1, 8] was −6.77% and the “Plasma cortisol AUC0-12 estimated percent change from baseline, LS Mean” value [1, 8] was −19.53%. The “Plasma 11-deoxycortisol AUC0-12 estimated percent change from baseline, LS Mean” value [1, 9] was 1.82%, the “Plasma cortisol AUC0-12 estimated percent change from baseline, LS Mean” value [1, 9] was −4.45% and the “Plasma 11-deoxycortisol AUC0-12 estimated percent change from baseline, LS Mean” value [1, 10] was −25.69%. For the same compound, the “Plasma cortisol AUC0-12 estimated percent change from baseline, LS Mean” value [1, 10] was −38.02%, the “Plasma 11-deoxycortisol AUC0-12 estimated percent change from baseline, LS Mean” value [1, 11] was −2.72% and the “Plasma cortisol AUC0-12 estimated percent change from baseline, LS Mean” value [1, 11] was −9.23%. For the same compound, the “Plasma 11-deoxycortisol AUC0-12 estimated percent change from baseline, LS Mean” value [1, 12] was 18.84%, the “Plasma cortisol AUC0-12 estimated percent change from baseline, LS Mean” value [1, 12] was −37.25% and the “Plasma total cortisol, mean” value ([1]; Day −1 predose, 0.5 mg, normal salt diet) was 86.74 ng/mL. For the same compound, the “Plasma total cortisol, mean” value ([1]; Day −1 predose, 1.5 mg, normal salt diet) was 90.79 ng/mL, the “Plasma total cortisol, mean” value ([1]; Day −1 predose, 2.5 mg, low salt diet) was 90.39 ng/mL and the “Plasma total cortisol, mean” value ([1]; Day −1 predose, 2.5 mg, normal salt diet) was 107.50 ng/mL. The “Plasma total cortisol, mean” value ([1]; Day −1 predose, 5.0 mg, low salt diet) was 83.17 ng/mL, the “cortisol (total or free) or 11-deoxycortisol” value [1] was “remained unaffected” and the “cortisol (total or free) or 11-deoxycortisol” value ([1]; listed as (R)-compound 1) was “no apparent effects; also recorded: no apparent differences”. For the same compound, the “subjects experiencing a TEAE (mild diarrhea, related)” value ([2]; control group) was 1 (10.0%), the “subjects experiencing TEAEs (moderate tremor, severe metabolic encephalopathy, not related)” value ([2]; kidney failure group) was 1 (8.3%) and the “subjects experiencing a TEAE” value ([2]; moderate to severe renal impairment group) was “no subjects”. The “subjects experiencing TEAEs” value ([2]; overall, single 10 mg dose) was 2 (6.1%), the “subjects experiencing an SAE” value ([2]; overall, single 10 mg dose) was 1 (3.0%) and the tolerability ([2]; single 10 mg dose, varying degrees of renal function) was “well tolerated”.
